Experiments:
Details in all cases: exposure time: 90 min
1309 [1] = donor line of iPSC-derived cardiomyocytes; test: POD (EC05) for decrease in beat frequency (negative chronotrope) vs vehicle; higher = less potent (higher point of departure)
Summary of the method: (§1)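 Cardiomyocytes from human iPSCs of 16 donors spent 14 days in gelatin-coated 384-well plates before 2 h of fluorescent Ca2+ dye loading. They were then held for 90 min at 37 °C at final concentrations of 0.1, 1, 10 and 100 µM containing 0.5% DMSO, and Ca2+ flux was read on a FLIPR Tetra (8 frames/s, 100 s) before and after. Donor-level points of departure were taken from hierarchical Bayesian Hill fits to vehicle-normalised beat frequency, decay-to-rise ratio or peak frequency. For these, a 5% change was the threshold, or a 95% loss for peak frequency.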

1392 = donor line of iPSC-derived cardiomyocytes; test: as above
Summary of the method: as §1

1516 [2] = donor line of iPSC-derived cardiomyocytes; test: as above
Summary of the method: as §1

1535 = donor line of iPSC-derived cardiomyocytes; test: as above
Summary of the method: as §1

1565 [3] = donor line of iPSC-derived cardiomyocytes; test: as above
Summary of the method: as §1

20032 [4] = donor line of iPSC-derived cardiomyocytes; test: as above
Summary of the method: as §1

20084 [5] = donor line of iPSC-derived cardiomyocytes; test: as above
Summary of the method: as §1

30145 = donor line of iPSC-derived cardiomyocytes; test: as above
Summary of the method: as §1

1118 = donor line of iPSC-derived cardiomyocytes; test: POD (EC05) for increase in beat frequency (positive chronotrope) vs vehicle; higher = less potent (higher point of departure)
Experimental: (§2)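 Human iPSC-derived cardiomyocytes from 16 donors were exposed for 90 min at 37 °C to each PFAS at 0.1, 1, 10 and 100 µM in 0.5% DMSO, 384-well plates. Kinetic Ca2+ flux (FLIPR) and Hoechst nuclei counts were normalised to vehicle wells and fitted with a hierarchical Bayesian Hill model to give donor-specific PODs: EC05 for beat-rate increase or decrease and for decay-to-rise ratio increase (QT proxy), EC95 for peak-frequency loss (asystole), EC10 for total cell number loss. 0.03 µM is the lower bound.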

11235 = donor line of iPSC-derived cardiomyocytes; test: as above
Experimental: as §2

1309 [6] = test: as above
Experimental: as §2

1434 = donor line of iPSC-derived cardiomyocytes; test: as above
Experimental: as §2

1516 [7] = test: as above
Experimental: as §2

1518 = donor line of iPSC-derived cardiomyocytes; test: as above
Experimental: as §2

1531 = donor line of iPSC-derived cardiomyocytes; test: as above
Experimental: as §2

1565 [8] = test: as above
Experimental: as §2

20032 [9] = test: as above
Experimental: as §2

20084 [10] = test: as above
Experimental: as §2

30171 = donor line of iPSC-derived cardiomyocytes; test: as above
Experimental: as §2

1083 = donor line of iPSC-derived cardiomyocytes; test: as above
Experimental: as §2

Compound | POD vs vehicle 1309 [1] | POD vs vehicle 1392 | POD vs vehicle 1516 [2] | POD vs vehicle 1535 | POD vs vehicle 1565 [3] | POD vs vehicle 20032 [4] | POD vs vehicle 20084 [5] | POD vs vehicle 30145 | POD vs vehicle 1118 | POD vs vehicle 11235 | POD vs vehicle 1309 [6] | POD vs vehicle 1434 | POD vs vehicle 1516 [7] | POD vs vehicle 1518 | POD vs vehicle 1531 | POD vs vehicle 1565 [8] | POD vs vehicle 20032 [9] | POD vs vehicle 20084 [10] | POD vs vehicle 30171 | POD vs vehicle 1083
O=C([O-])C(F)(F)C(F)(F)C(F)(F)C(F)(F)C(F)(F)C(F)(F)C(F)(F)F.[NH4+] [Ammonium_perfluorooctanoate] | > 100 µM | > 100 µM | 58.4 µM | 43.5 µM | > 100 µM | 79.9 µM | > 100 µM | > 100 µM | > 100 µM | > 100 µM | > 100 µM | > 100 µM | > 100 µM | > 100 µM | > 100 µM | > 100 µM | > 100 µM | > 100 µM | > 100 µM | –
OCC(F)(F)OC(F)(F)C(F)(F)OC(F)(F)C(F)(F)OC(F)(F)F [Fluorinated_triethylene_glycol_monomethyl_ether] | > 100 µM | > 100 µM | > 100 µM | > 100 µM | > 100 µM | > 100 µM | > 100 µM | > 100 µM | > 100 µM | > 100 µM | > 100 µM | > 100 µM | – | – | > 100 µM | > 100 µM | > 100 µM | > 100 µM | – | > 100 µM
CN(CCO)S(=O)(=O)C(F)(F)C(F)(F)C(F)(F)C(F)(F)C(F)(F)C(F)(F)C(F)(F)C(F)(F)F [N-Methyl-N-(2-hydroxyethyl)perfluorooctanesulfonamide] | > 100 µM | > 100 µM | > 100 µM | > 100 µM | > 100 µM | > 100 µM | > 100 µM | > 100 µM | > 100 µM | – | > 100 µM | – | – | > 100 µM | > 100 µM | > 100 µM | 0.199 µM | > 100 µM | > 100 µM | > 100 µM
O=S(=O)(O)C(F)(F)C(F)(F)C(F)(F)C(F)(F)F [Perfluorobutanesulfonic_acid] | > 100 µM | > 100 µM | 29.7 µM | > 100 µM | > 100 µM | > 100 µM | > 100 µM | > 100 µM | > 100 µM | > 100 µM | > 100 µM | > 100 µM | > 100 µM | > 100 µM | > 100 µM | > 100 µM | > 100 µM | > 100 µM | > 100 µM | –
O=C(O)C(F)(F)C(F)(F)C(F)(F)C(F)(F)C(F)(F)C(F)(F)C(F)(F)C(F)(F)C(F)(F)C(F)(F)F [Perfluoroundecanoic_acid] | > 100 µM | > 100 µM | – | > 100 µM | > 100 µM | > 100 µM | > 100 µM | > 100 µM | > 100 µM | > 100 µM | > 100 µM | > 100 µM | > 100 µM | > 100 µM | > 100 µM | > 100 µM | > 100 µM | > 100 µM | > 100 µM | > 100 µM

From the supplement of paper PMC11368000
